Test results as given in the NIST ThermoML archive (doi:10.1016/j.jct.2005.08.009).
± gives the expanded uncertainty stated by the source.

Tests used:
[1] = 101 kPa, Liquid
[2] = xn = mol fraction of the nth substance listed; conditions: 101 kPa, Liquid, x2 = 0

For `CC#N` [acetonitrile], the mass density ([1]; 298.15 K) was 776.69 ± 1.9 kg/m3, the viscosity ([1]; 298.15 K) was 0.3417 ± 0.0053 mPa·s and the mass density ([1]; 303.15 K) was 771.89 ± 1.9 kg/m3. For the same compound, the viscosity ([1]; 303.15 K) was 0.328 ± 0.0051 mPa·s, the mass density ([1]; 308.15 K) was 765.46 ± 2 kg/m3 and the viscosity ([1]; 308.15 K) was 0.3129 ± 0.0049 mPa·s. The mass density ([1]; 313.15 K) was 760.86 ± 2 kg/m3, the viscosity ([1]; 313.15 K) was 0.3009 ± 0.0048 mPa·s and the mass density ([1]; 318.15 K) was 754.76 ± 2 kg/m3. It also gave a viscosity ([1]; 318.15 K) of 0.2899 ± 0.0047 mPa·s.

In the case of `O` [water] + CC#N, the viscosity ([2]; 298.15 K) is reported as 0.8901 ± 0.011 mPa·s, the viscosity ([2]; 303.15 K) is reported as 0.7973 ± 0.01 mPa·s and the viscosity ([2]; 308.15 K) is reported as 0.7193 ± 0.0093 mPa·s. For the same compound, the viscosity ([2]; 313.15 K) was 0.653 ± 0.0086 mPa·s and the viscosity ([2]; 318.15 K) was 0.5961 ± 0.008 mPa·s.
